Experimental findings from a melting point compilation (Tetko et al.; mined from patent text by program, amines drawn as free bases though some values may be those of a salt) are described below.

Some results are limits rather than exact numbers.

What is called melting point is the temperature of the solid-liquid transition. The molecule `CC(C)(C)NC(=O)NCc1ccc2c(c1)CN(C1CCC(=O)NC1=O)C2=O` (centres undefined) showed a melting point of 260 to 262 °C. In the case of `NC(=O)COCCOCCN1CCC(=C(c2ccccc2)c2ccccc2)CC1` it was 51 to 53 °C; in that of `On1c(-c2ccncc2)nc2ccc(Cn3ccnc3)cc21`, 198 °C; in that of `COc1nc(CO)ccc1CN1CC1C#N` (centres undefined), 68 to 70 °C. Under `Cc1c(Cl)ccc2cc(C(F)(F)F)c(C(F)(F)F)nc12` stands 70 to 73 °C. `CCCCc1ccc(N=C2NCCCN2)cc1` gave a melting point of 116 to 119 °C. `CCS(=O)c1cccc(-c2nc(=O)c3ccccc3s2)n1` (centres undefined): the melting point was determined as 182 °C. In turn, `N=C(N)NC(=O)Cn1c(Cc2cccs2)ccc1-c1ccccc1` came in with a melting point of 99 to 120 °C. In the case of `NC(=O)COC(=O)NCCC[C@H]1OC[C@H](c2ccc(Cl)c3ccccc32)CO1` it was 176 to 178 °C.

In the case of `Oc1ccccc1CNNCc1ccccc1O`, the melting point lay within 315 to 316 °C. Under `COC(=O)c1ccccc1NC1C=CC(=O)O1` (centres undefined) stands 172 to 173 °C.

`CCCOc1ncc(I)cc1-c1nc2c(CC)n(Cc3ccccn3)nc2c(=O)[nH]1` displayed a melting point of 229 to 234 °C. In the case of `CC(C)n1nc(-c2ccc(OCC(N)=O)nc2-c2ccccc2)ccc1=O`, the melting point fell in the range of 137 to 138 °C. `COc1ccc(-c2cc3cc(F)c(F)cc3[nH]2)cc1NCc1cccs1` displayed a melting point of 190 to 192 °C. In the case of `Cc1[nH]c(C=O)c(C)c1CCO` it was 125 to 127 °C; in that of `CC(C)(C)CCCOC1CCC2C3CC=C4CC(O[Si](C)(C)C(C)(C)C)CCC4(C)C3CCC12C` (centres undefined), 138 to 139 °C; in that of `CC(=O)NCCCc1ccc(CN2CCN(c3ccccc3)CC2)cc1`, 117 to 118 °C. Under `CCCc1nccn1Cc1ccc2c(c1)Cc1c(-c3ccsc3)n[nH]c1-2` stands 113 to 117 °C.

Consider `COC(=O)c1sc(C(F)(F)F)cc1OC`, for which the melting point is 78 to 79 °C.

For `CC1(c2ccccc2)SC(=Nc2ccc(Cl)cc2)N(Nc2ccccc2)C1=O` (centres undefined), the melting point lay in the range of 53 to 54 °C. On to `CCCc1c(OCCCOc2cccc(N)c2C#N)ccc(C(C)=O)c1O`, for which the melting point was 120 to 122 °C. In the case of `O=C1c2ccccc2C(=O)c2sc(-c3ccoc3)nc21` it was 245 °C; in that of `CC(C)c1nc(C(C)C)c(/C=C/C=O)c(-c2ccc(F)cc2)c1C=CC=O`, 122 to 123 °C. Under `Cc1ccc2nc3n(c(=O)c2c1)-c1ccc(F)cc1C3=O` stands 300 to 301 °C; under `CCCCc1nc(CCO)c[nH]1`, 92 to 93 °C; under `COc1nc2cccccc-2n1`, 94 °C. With `C=CCOC(=O)c1cccc(NC(=O)NCC(=O)Nc2ccccc2C(=O)c2cccs2)c1`, the melting point lay in the range of 140 to 141 °C. Under `CC(=O)OC1C(NC(=O)c2ccc(C(F)(F)F)cc2)c2sc(C(C)=O)cc2OC1(C)C` (centres undefined) stands 225 to 227 °C. Under `N#Cc1cnn2c1N(C(=O)CCl)CC=C2c1cc(Cl)ccc1Cl` stands 235 to 236 °C; under `CCOC(=O)c1ccc(CNC(=O)CCl)cc1O`, 120 to 121 °C; under `COc1cccc(C(=O)Nc2ccc3c(c2)CCC3=O)c1`, 203 to 204 °C.

`CC1(C)OC(c2ccc(S(C)(=O)=O)cc2Cl)=C(c2ccccc2)C1=O` came in with a melting point of 89 to 90 °C.

For `C=CCn1c(N)cc(=O)n1-c1ccccc1`, the melting point is 184 to 185 °C. Under `Cc1cccc(-c2n[nH]cc2-c2ccc(F)c(-c3cn(C)cn3)c2)n1` stands 168 to 169 °C; under `C=CCOc1noc2ccc(N3C(=O)C4=C(CCCC4)C3=O)cc12`, 88 to 89 °C. As for `COc1ccc(N)cc1NCC(N)=O`, the melting point was determined as 144 °C. In the case of `CC(C)c1cccc(C(C)C)c1NC(=O)NCC1(c2c(Cl)cccc2Cl)CCC1` it was 174 to 177 °C.

`CCCCCCCN(Cc1ccc(CCC(C)C)cc1)C(=O)Nc1c(OC)ccc2ncccc12` displayed a melting point of 86 to 87 °C. In the case of `O=C(Nc1ccc(N2CCCC2)nc1)c1cc2cc(F)ccc2n1Cc1ccncc1` it was 255 to 257 °C; in that of `CC(=O)NC1CCNC(c2cccc(Oc3ccccc3)n2)C1` (centres undefined), 104 to 106 °C.

Molecule `CSc1nncc(-c2ccco2)n1` gave a melting point of 88 to 90 °C. In the case of `COc1cc(Nc2nccc(-c3nccs3)n2)cc(OC)c1OC` it was 159 °C.

Regarding `CCCNC(=O)C1(CCCc2ccccc2)c2ccccc2Sc2ccccc21`, the melting point was in the range of 130 to 131 °C. Under `Cc1oc(C2(C)CC=CCC2)nc1CC(=O)O` (centres undefined) stands 144 to 145 °C; under `COC(=O)c1cccc(C(=O)N(C)c2ccc3c(=O)n4c(nc3c2)C(=Cc2ccccc2)CC4)c1`, 200 to 202 °C. In the case of `FC1(F)C(Oc2cc(Cl)c(Cl)cc2Cl)=C(Oc2cc(Cl)c(Cl)cc2Cl)C(F)(F)C1(F)F` it was 65 to 68 °C; in that of `CCOC(=O)NC1CCCCn2c1nc(-c1ccncn1)cc2=O` (centres undefined), 168 to 170 °C; in that of `COc1cc2c(cc1OC)N(C(=O)c1ccc(-c3ccccc3C(F)(F)F)c(C)c1)Cc1ccc(C(=O)N3CCC(=O)CC3)n1C2`, 132 to 134 °C. For `Cc1sc(-c2ccccc2)nc1COc1ccc(COc2ncccc2CC(=O)O)cc1`, the melting point lay in the range of 128 to 129 °C. In the case of `COc1cnc(N2CCN(c3ccc(-n4c(C)n[nH]c4=O)cc3)CC2)nc1` it was greater than 300 °C; in that of `COc1cc2cc(C(=O)N3CC(CCl)c4c3cc(N)c3ncccc43)[nH]c2c(OC)c1OC` (centres undefined), 225 to 227 °C; in that of `Cc1ccccc1-c1nccc2c(CC(=O)O)cccc12`, 192 °C. In the case of `O=C(Nc1ccc(C(F)(F)F)cc1)N1CC(c2ccc(Cl)cc2)C(c2ccc(Cl)cc2)N1` (centres undefined) it was 242 to 243 °C; in that of `C#CC1(O)CCC2C3CCC4=CC(=O)CCC4C3C(=CF)CC21CC` (centres undefined), 169 to 180 °C; in that of `CC(C)n1nc(-c2c(-c3ccccc3)nn3ccc(OCCc4ccccc4)cc23)ccc1=O`, 154 to 156 °C.

Take `CCN(CC)c1ccc(C(=O)C#Cc2ccnc3ccccc23)cc1`: the melting point is 163 to 165 °C.

Molecule `COc1nc(C)nc(NC(=O)NS(=O)(=O)c2cccnc2OCC2CC2)n1` showed a melting point of 165 to 167 °C. Under `Cc1cc(Cl)cnc1NCCCNc1ncc(Cc2ccncc2)c(=O)[nH]1` stands 90 to 92 °C.

In the case of `COS(=O)c1cc(C(=O)CBr)ccc1C` (centres undefined), the melting point lay within 123 to 125 °C.

`O=C(O)CCCc1cccc(C(=O)c2ccccc2)c1`: the melting point worked out at 71 °C. In turn, `O=C(C=Cc1ccc(O)c([N+](=O)[O-])c1)NC12CC3CC(CC(C3)C1)C2` registered a melting point of 162 to 163 °C. In the case of `COCCOc1ccccc1S(=O)(=O)NC(=O)Nc1nc(C)cc(OC)n1` it was 160 to 162 °C; in that of `O=C(Nc1ccccc1Oc1ccc(Cl)cc1Cl)C1CCN(C(=O)c2ccccc2)CC1`, 176 to 177 °C; in that of `NC(=O)c1cn2c(nc1=O)CCC2`, 277 to 278 °C.
